Type in all cases: functional
The subject of test [1] is Desulfovibrio piger. Description: Antimicrobial activity against Desulfovibrio piger by Etest method.
The test system of test [2] is Desulfovibrio sp. Kind of test: Antimicrobial activity against Desulfovibrio sp. by Etest method.
In test [3] the test system is Desulfovibrio fairfieldensis. Description: Antimicrobial activity against Desulfovibrio fairfieldensis by Etest method.
In test [4] the test system is Desulfovibrio desulfuricans. Description: Antimicrobial activity against Desulfovibrio desulfuricans MB by Etest method.
Test [5] deals with Desulfovibrio desulfuricans. Description: Antimicrobial activity against Desulfovibrio desulfuricans Essex 6 by Etest method.
For test [6], the system named is Desulfovibrio sp. Description: Antimicrobial activity against Desulfovibrio sp. in presence of Sulbactam by Etest method.
Test [7] has as its system Desulfovibrio fairfieldensis. Kind of test: Antimicrobial activity against Desulfovibrio fairfieldensis in presence of Sulbactam by Etest method.
For test [8], the system named is Desulfovibrio desulfuricans. Description: Antimicrobial activity against Desulfovibrio desulfuricans Essex 6 in presence of Sulbactam by Etest method.
Test [9] relates to Desulfovibrio desulfuricans. Kind of test: Antimicrobial activity against Desulfovibrio desulfuricans MB in presence of Sulbactam by Etest method.
In test [10] the test system is Desulfovibrio piger. Description: Antimicrobial activity against Desulfovibrio piger in presence of Sulbactam by Etest method.
In test [11] the test system is Desulfovibrio sp. Kind of test: Antimicrobial activity against Desulfovibrio sp. in presence of Tazobactam by Etest method.
Test [12] concerns Desulfovibrio desulfuricans. Description: Antimicrobial activity against Desulfovibrio desulfuricans MB in presence of Tazobactam by Etest method.
In test [13] the test system is Desulfovibrio fairfieldensis. Kind of test: Antimicrobial activity against Desulfovibrio fairfieldensis in presence of Tazobactam by Etest method.
Test [14] relates to Desulfovibrio desulfuricans. Description: Antimicrobial activity against Desulfovibrio desulfuricans Essex 6 in presence of Tazobactam by Etest method.
The test system of test [15] is Desulfovibrio piger. Description: Antimicrobial activity against Desulfovibrio piger in presence of Tazobactam by Etest method.

Values after ≈ are worked out from the molar mass of the structure shown.

MIC, MIC50 and MIC90 data for 16 molecules are collected here from ChEMBL document CHEMBL1649294, “Susceptibilities of 23 Desulfovibrio isolates from humans” (2009).

Turning to `CC[C@H]1OC(=O)[C@H](C)[C@@H](O[C@H]2C[C@@](C)(OC)[C@@H](O)[C@H](C)O2)[C@H](C)[C@@H](O[C@@H]2O[C@H](C)C[C@H](N(C)C)[C@H]2O)[C@](C)(O)C[C@@H](C)C(=O)[C@H](C)[C@@H](O)[C@]1(C)O` [ERYTHROMYCIN], the MIC in the test with Desulfovibrio piger [1] amounted to 0.016 µg/mL (≈ 0.0218 µM); in test [3] it was 0.5 µg/mL (≈ 0.681 µM); in test [4], 0.38 µg/mL (≈ 0.518 µM); in [5], 0.38 µg/mL (≈ 0.518 µM). Besides, in the test on Desulfovibrio sp. [2], the MIC50 is 0.5 µg/mL (≈ 0.681 µM). The molecule also gave an MIC90 in the test on Desulfovibrio sp. [2] of 1.5 µg/mL (≈ 2.04 µM).

As to `CCN1CCN(C(=O)N[C@@H](C(=O)N[C@@H]2C(=O)N3C(C(=O)O)=C(CSc4nnnn4C)CS[C@H]23)c2ccc(O)cc2)C(=O)C1=O` [CEFOPERAZONE], the MIC50 was 4 µg/mL in the test with Desulfovibrio sp. [6] and above 256 µg/mL in the test on Desulfovibrio sp. [2]. Also, the MIC90 in the test with Desulfovibrio sp. [6] and against Desulfovibrio sp. [2] was above 256 µg/mL in each case. Also, the MIC in test [7] is above 24 µg/mL; against Desulfovibrio piger [1] it was 12 µg/mL (≈ 18.6 µM); in test [8] it was above 3 µg/mL; in [9] it was 1 µg/mL; in test [3] it was above 256 µg/mL; in the test on Desulfovibrio piger [10], 1 µg/mL. Further, the MIC in test [4] is 12 µg/mL (≈ 18.6 µM); in test [5], above 16 µg/mL.

As for `C[C@@H](O)[C@H]1C(=O)N2C(C(=O)O)=C(S[C@@H]3CN[C@H](C(=O)N(C)C)C3)[C@H](C)[C@H]12` [MEROPENEM], the MIC with Desulfovibrio piger [1] was determined as 0.032 µg/mL (≈ 0.0834 µM); in test [3], 2 µg/mL (≈ 5.22 µM); in test [4], 0.023 µg/mL (≈ 0.06 µM); in test [5], 0.064 µg/mL (≈ 0.167 µM). Also, the MIC50 in the test with Desulfovibrio sp. [2] amounted to 0.19 µg/mL (≈ 0.495 µM). The same molecule came in with an MIC90 against Desulfovibrio sp. [2] of 4 µg/mL (≈ 10.4 µM).

With `O=C(N[C@H](CO)[C@H](O)c1ccc([N+](=O)[O-])cc1)C(Cl)Cl` [CHLORAMPHENICOL], the MIC against Desulfovibrio piger [1] worked out at 1.5 µg/mL (≈ 4.64 µM); in the test on Desulfovibrio sp. [2], 1.5 µg/mL (≈ 4.64 µM); in [3], 3 µg/mL (≈ 9.28 µM); in [4], 1.5 µg/mL (≈ 4.64 µM); in test [5] it was 1.5 µg/mL (≈ 4.64 µM). Moreover, the MIC50 against Desulfovibrio sp. [2] was 4 µg/mL (≈ 12.4 µM). In addition, the MIC90 in the test with Desulfovibrio sp. [2] was found to be 8 µg/mL (≈ 24.8 µM).

Consider `CO/N=C(\C(=O)N[C@@H]1C(=O)N2C(C(=O)O)=C(COC(C)=O)CS[C@H]12)c1csc(N)n1` [CEFOTAXIME], for which the MIC was 1 µg/mL (≈ 2.2 µM) in the test on Desulfovibrio piger [1], above 0.047 µg/mL in test [3], 0.5 µg/mL (≈ 1.1 µM) in test [4] and 0.047 µg/mL (≈ 0.103 µM) in [5]. The MIC50 against Desulfovibrio sp. [2] was 1.5 µg/mL (≈ 3.29 µM). The same molecule returned an MIC90 against Desulfovibrio sp. [2] above 256 µg/mL.

In the case of `O=C(O)c1cn(C2CC2)c2cc(N3CCNCC3)c(F)cc2c1=O` [CIPROFLOXACIN], the MIC was 0.125 µg/mL (≈ 0.377 µM) against Desulfovibrio piger [1], above 32 µg/mL in [3], 0.125 µg/mL (≈ 0.377 µM) in test [4] and 0.19 µg/mL (≈ 0.573 µM) in test [5]. The MIC50 in the test on Desulfovibrio sp. [2] was determined as 0.5 µg/mL (≈ 1.51 µM). This molecule also had an MIC90 in the test with Desulfovibrio sp. [2] above 32 µg/mL.

For the molecule `C[C@H]1COc2c(N3CCN(C)CC3)c(F)cc3c(=O)c(C(=O)O)cn1c23.C[C@H]1COc2c(N3CCN(C)CC3)c(F)cc3c(=O)c(C(=O)O)cn1c23.O` [LEVOFLOXACIN], the MIC with Desulfovibrio piger [1] was 0.095 µg/mL; in test [3] it was above 32 µg/mL; in test [4] it was 0.25 µg/mL; in test [5], 0.25 µg/mL. Further, the MIC50 in the test on Desulfovibrio sp. [2] is 0.75 µg/mL. Also, the MIC90 in the test on Desulfovibrio sp. [2] is above 32 µg/mL.

In the case of `CN(C)c1ccc(O)c2c1C[C@H]1C[C@H]3[C@H](N(C)C)C(O)=C(C(N)=O)C(=O)[C@@]3(O)C(O)=C1C2=O` [MINOCYCLINE], the MIC amounted to 0.19 µg/mL (≈ 0.415 µM) with Desulfovibrio piger [1], 4 µg/mL (≈ 8.74 µM) in [3], 3 µg/mL (≈ 6.56 µM) in test [4] and 2 µg/mL (≈ 4.37 µM) in [5]. For the same molecule, in the test on Desulfovibrio sp. [2], the MIC50 was found to be 6 µg/mL (≈ 13.1 µM). This molecule also had an MIC90 against Desulfovibrio sp. [2] of 24 µg/mL (≈ 52.5 µM).

Consider `CC1(C)S[C@@H]2[C@H](NC(=O)[C@H](N)c3ccccc3)C(=O)N2[C@H]1C(=O)O` [AMPICILLIN], for which the MIC in the test on Desulfovibrio sp. [6] was 0.06 µg/mL; in test [7] it was 4 µg/mL; in the test on Desulfovibrio piger [1] it was 12 µg/mL (≈ 34.3 µM); in test [8] it was 0.125 µg/mL; in test [9], 0.064 µg/mL; in [3] it was 4 µg/mL (≈ 11.4 µM). The values for the minimum inhibitory concentration (MIC) (in the test with Desulfovibrio piger [10]; in test [4]; in test [5]) were 0.5 µg/mL, 0.19 µg/mL (≈ 0.544 µM) and 0.19 µg/mL (≈ 0.544 µM), respectively. Further, the MIC50 in the test with Desulfovibrio sp. [6] is 0.38 µg/mL; in the test with Desulfovibrio sp. [2] it was 0.75 µg/mL (≈ 2.15 µM). The MIC90 came to 6 µg/mL in the test on Desulfovibrio sp. [6] and 8 µg/mL (≈ 22.9 µM) against Desulfovibrio sp. [2].

Turning to `CCC[C@@H]1C[C@@H](C(=O)N[C@@H]([C@H]2O[C@H](SC)[C@H](O)[C@@H](O)[C@H]2O)[C@H](C)Cl)N(C)C1` [CLINDAMYCIN], the MIC in the test with Desulfovibrio piger [1] was 0.016 µg/mL (≈ 0.0376 µM); in test [3], 0.032 µg/mL (≈ 0.0753 µM); in test [4] it was 0.094 µg/mL (≈ 0.221 µM); in test [5] it was 0.094 µg/mL (≈ 0.221 µM). The MIC50 against Desulfovibrio sp. [2] was 0.125 µg/mL (≈ 0.294 µM). The same molecule showed an MIC90 against Desulfovibrio sp. [2] of 0.19 µg/mL (≈ 0.447 µM).

Turning to `Cc1ncc([N+](=O)[O-])n1CCO` [METRONIDAZOLE], the minimal inhibitory concentration (MIC) stood at 0.032 µg/mL (≈ 0.187 µM) in the test on Desulfovibrio piger [1], 0.016 µg/mL (≈ 0.0935 µM) in test [3], 0.016 µg/mL (≈ 0.0935 µM) in test [4] and 0.064 µg/mL (≈ 0.374 µM) in test [5]. In the test on Desulfovibrio sp. [2], this molecule had an MIC50 of 0.125 µg/mL (≈ 0.73 µM). Also, in the test on Desulfovibrio sp. [2], the MIC90 is 0.25 µg/mL (≈ 1.46 µM).

Take `CC(=O)OCC1=C(C(=O)O)N2C(=O)[C@@H](NC(=O)Cc3cccs3)[C@H]2SC1` [CEPHALOTHIN]: the MIC against Desulfovibrio piger [1] was above 96 µg/mL; in test [3], above 256 µg/mL; in test [4] it was 2 µg/mL (≈ 5.04 µM); in test [5] it was above 3 µg/mL. The MIC50 with Desulfovibrio sp. [2] was above 256 µg/mL. In the test on Desulfovibrio sp. [2], the MIC90 is above 256 µg/mL.

Regarding `CC(C)(O/N=C(\C(=O)N[C@@H]1C(=O)N2C(C(=O)[O-])=C(C[n+]3ccccc3)CS[C@H]12)c1csc(N)n1)C(=O)O` [CEFTAZIDIME], the MIC with Desulfovibrio piger [1] is 3 µg/mL (≈ 5.49 µM); in test [3], above 256 µg/mL; in [4], 2 µg/mL (≈ 3.66 µM); in test [5], above 3 µg/mL. Further, the MIC50 in the test with Desulfovibrio sp. [2] was 6 µg/mL (≈ 11 µM). In the test with Desulfovibrio sp. [2], this molecule returned an MIC90 above 256 µg/mL.

With `CCN1CCN(C(=O)N[C@@H](C(=O)N[C@@H]2C(=O)N3[C@@H]2SC(C)(C)[C@@H]3C(=O)O)c2ccccc2)C(=O)C1=O` [PIPERACILLIN], the MIC50 in the test on Desulfovibrio sp. [11] and against Desulfovibrio sp. [2] was above 256 µg/mL in each case. Besides, the MIC90 in the test on Desulfovibrio sp. [11] and with Desulfovibrio sp. [2] was above 256 µg/mL throughout. In addition, the MIC was above 256 µg/mL in the test with Desulfovibrio piger [1]; 32 µg/mL in test [12]; above 256 µg/mL in [3]; above 256 µg/mL in test [13]; above 32 µg/mL in [4]; above 256 µg/mL in test [5]. Further, the results for the MIC (in test [14]; with Desulfovibrio piger [15]) were above 16 µg/mL and above 256 µg/mL, respectively.

With `CO[C@@]1(NC(=O)Cc2cccs2)C(=O)N2C(C(=O)O)=C(COC(N)=O)CS[C@@H]21` [CEFOXITIN], the MIC against Desulfovibrio piger [1] is 16 µg/mL (≈ 37.4 µM); in test [3] it was above 64 µg/mL; in test [4] it was above 16 µg/mL; in test [5], above 256 µg/mL. The molecule further registered an MIC50 against Desulfovibrio sp. [2] above 256 µg/mL. For the same molecule, in the test with Desulfovibrio sp. [2], the MIC90 is above 256 µg/mL.

Take `CO/N=C(\C(=O)N[C@@H]1C(=O)N2C(C(=O)[O-])=C(C[n+]3cccc4c3CCC4)CS[C@H]12)c1csc(N)n1` [CEFPIROME]: the MIC with Desulfovibrio piger [1] is 0.75 µg/mL (≈ 1.46 µM); in test [3], above 256 µg/mL; in test [4], 0.5 µg/mL (≈ 0.972 µM); in [5], 0.5 µg/mL (≈ 0.972 µM). The molecule further returned an MIC50 against Desulfovibrio sp. [2] of 4 µg/mL (≈ 7.77 µM). This molecule also gave an MIC90 with Desulfovibrio sp. [2] above 256 µg/mL.
